Key:
[1] = tested on: carbonic anhydrase II (CAII); assay: Detection of small molecules by QCRS on CAII surface; type: binding; settings: for frequency shift on CAII surface: 12.5 μM
Procedure: The CAII surface was then used to capture 4-carboxybenzenesulfonamide (CBS […] in running PBSS buffer+0.25% MeOH).
The same CAII surface was used to detect 12.5 μM 4-carboxybenzenesulfonamide, and 12.5 μM 5-(dimethylamino)-1-naphthalenesulfonamide.

[2] = tested on: mouse anti-biotin IgG; assay: Detection of proteins by SPR: biotinylated BSA on Dextran T70-COOH-PDEA (428018) surfaces; type: binding; settings: 10 μg/ml
Procedure: 4 flow cells having polymer treated surfaces were prepared. Flow cells (FC) 1, 2 & 3—were all activated by exposure for 7 min to […] (200 mM/50 mM). FC 3 only was then treated for 7 min with 50 μg/ml mouse anti-biotin IgG in 10 mM NaOAc buffer pH 4.5. FC 2 only was coupled to 50 μg/ml an irrelevant mouse monoclonal IgG in 10 mM NaOAc buffer pH 4.5 (7 minute exposure). FC 1, 2, 3—were capped by treatment for 5 min with ethanolamine (1 M, pH 8.5). FC 4 comprised untreated polymer.
Dextran T70-COOH-PDEA (428018) was deposited and mouse anti-biotin IgG was immobilised using the same procedure as in Example 7. The measurement of the immobilisation is shown in FIG. 12, which again is a graph of response (RU) against time (seconds).

frequency shift on CAII surface [1] [Hz] | frequency shift on capture by CAII surface ([1]; 25 μm in running PBSS buffer + […] MeOH) [Hz] | binding to anti-biotin IgG surface (FC3) ([2]; FC3) | binding to control surfaces (FC1, 2 and 4) ([2]; capped polymer, irrelevant mouse IgG, unactivated polymer) | Compound
1.2 |  |  |  | CN(C)c1cccc2c(S(N)(=O)=O)cccc12 [5-(dimethylamino)-1-naphthalenesulfonamide]
2.5 | 6 |  |  | NS(=O)(=O)c1ccc(C(=O)O)cc1 [4-carboxybenzenesulfonamide]
 |  | Specific binding occurs | minimal non-specific binding | biotinylated BSA: biotinylated bovine serum albumin used as analyte

Source: patent publication US20080026486A1, “Assay Methods, Materials and Preparations” (priority 2004, published 2008)
